Experimental data reported in patent US11945801B2, “Bicyclic aza compounds as muscarinic M1 and/or M4 receptor agonists” (Heptares Therapeutics Limited, priority 2018, dated 2024).
Read-outs that look alike come from different tables or passages of the source.

Tests used:
Format in all cases: cell-based
[1] = target: T1, human muscarinic M2 receptor (Homo sapiens, UniProt P08172); assay: Alphascreen Surefire phospho-ERK1/2 functional assay, M2; conditions: for EC50: CHO cells stably expressing human M2, agonist 5 min, 37° C., read-out: pEC50 M2 (converted); for Emax: CHO
T1 sequence (P08172 1-466): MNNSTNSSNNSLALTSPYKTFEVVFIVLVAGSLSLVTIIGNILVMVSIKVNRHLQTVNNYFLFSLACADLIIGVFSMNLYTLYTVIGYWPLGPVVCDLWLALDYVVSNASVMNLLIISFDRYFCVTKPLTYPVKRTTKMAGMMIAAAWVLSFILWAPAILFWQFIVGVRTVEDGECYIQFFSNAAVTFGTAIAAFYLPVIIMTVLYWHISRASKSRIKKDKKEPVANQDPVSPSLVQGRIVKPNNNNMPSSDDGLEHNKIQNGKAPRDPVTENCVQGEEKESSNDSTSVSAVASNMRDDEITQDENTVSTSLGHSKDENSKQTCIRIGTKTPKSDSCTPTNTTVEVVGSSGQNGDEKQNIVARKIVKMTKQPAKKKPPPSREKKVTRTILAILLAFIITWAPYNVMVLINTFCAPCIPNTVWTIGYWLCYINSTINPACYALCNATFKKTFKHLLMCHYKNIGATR
Method: (§1) ERK1/2 phosphorylation is a downstream consequence of both Gq/11 and Gi/o protein coupled receptor activation, making it highly suitable for the assessment of M1, M3 (Gq/11 coupled) and M2, M4 receptors (Gi/o coupled), rather than using different assay formats for different receptor subtypes. CHO cells stably expressing the human muscarinic M1, M2, M3 or M4 receptor were plated (25K/well) onto 96-well tissue culture plates in MEM-alpha+10% dialysed FBS. Once adhered, cells were serum-starved overnight. Agonist stimulation was performed by the addition of 5 μL agonist to the cells for 5 min (37° C.). Media was removed and 50 μL of lysis buffer added. After […], a 4 μL sample was transferred to 384-well plate and 7 μL of detection mixture added.
(§2) Isomer assignment (Isomer 1, Isomer 2, etc.) is based on the retention time of the compound using the separation technique that was performed in the final purification step. By implication, this could be reversed phase HPLC, chiral HPLC or chiral SFC retention time, and this will vary from compound to compound.

[2] = target: T2, human muscarinic M3 receptor (Homo sapiens, UniProt P20309); assay: Alphascreen Surefire phospho-ERK1/2 functional assay, M3; conditions: for EC50: CHO cells stably expressing human M3, agonist 5 min, 37° C., read-out: pEC50 M3 (converted); for Emax: CHO
T2 construct: expressed in transfected cells
T2 sequence (P20309 whole entry): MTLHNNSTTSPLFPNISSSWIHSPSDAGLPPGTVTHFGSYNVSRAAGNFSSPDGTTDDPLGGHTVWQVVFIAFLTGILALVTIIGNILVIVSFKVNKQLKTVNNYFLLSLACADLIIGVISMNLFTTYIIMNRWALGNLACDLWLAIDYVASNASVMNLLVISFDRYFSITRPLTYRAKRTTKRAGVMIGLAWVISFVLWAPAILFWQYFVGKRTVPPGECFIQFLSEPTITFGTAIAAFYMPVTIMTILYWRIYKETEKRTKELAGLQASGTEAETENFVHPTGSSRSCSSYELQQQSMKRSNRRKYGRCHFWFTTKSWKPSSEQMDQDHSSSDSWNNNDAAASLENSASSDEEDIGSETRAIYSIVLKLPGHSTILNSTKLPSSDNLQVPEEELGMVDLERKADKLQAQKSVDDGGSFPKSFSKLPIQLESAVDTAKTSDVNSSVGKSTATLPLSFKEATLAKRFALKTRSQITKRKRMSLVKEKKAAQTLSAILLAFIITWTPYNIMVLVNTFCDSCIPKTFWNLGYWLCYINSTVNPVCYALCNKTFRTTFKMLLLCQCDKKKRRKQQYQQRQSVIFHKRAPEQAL
Method: as §1, §2

[3] = target: T3, human muscarinic M1 receptor (Homo sapiens, UniProt P11229); assay: Alphascreen Surefire phospho-ERK1/2 functional assay, M1; conditions: for EC50: agonist 5 min, 37° C., read-out: pEC50 M1 (converted); for Emax: CHO
T3 sequence (P11229 1-460): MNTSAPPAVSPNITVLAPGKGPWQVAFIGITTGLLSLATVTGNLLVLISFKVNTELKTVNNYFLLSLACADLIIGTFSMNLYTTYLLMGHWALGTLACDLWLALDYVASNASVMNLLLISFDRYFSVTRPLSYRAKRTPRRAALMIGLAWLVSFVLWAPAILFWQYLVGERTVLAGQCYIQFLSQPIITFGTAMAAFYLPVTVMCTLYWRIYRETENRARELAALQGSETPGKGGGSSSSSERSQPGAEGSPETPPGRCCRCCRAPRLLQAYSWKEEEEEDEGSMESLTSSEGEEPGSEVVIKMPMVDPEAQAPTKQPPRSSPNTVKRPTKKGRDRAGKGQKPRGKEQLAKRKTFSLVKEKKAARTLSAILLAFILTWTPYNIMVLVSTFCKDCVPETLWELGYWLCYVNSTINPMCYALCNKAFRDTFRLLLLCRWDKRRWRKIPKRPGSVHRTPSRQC
Method: as §1, §2

[4] = target: T4, human muscarinic M4 receptor (Homo sapiens, UniProt P08173); assay: Alphascreen Surefire phospho-ERK1/2 functional assay, M4; conditions: for EC50: CHO cells stably expressing human M4, agonist 5 min, 37° C., read-out: pEC50 M4 (converted); for Emax: CHO
T4 construct: expressed in transfected cells
T4 sequence (P08173 1-479): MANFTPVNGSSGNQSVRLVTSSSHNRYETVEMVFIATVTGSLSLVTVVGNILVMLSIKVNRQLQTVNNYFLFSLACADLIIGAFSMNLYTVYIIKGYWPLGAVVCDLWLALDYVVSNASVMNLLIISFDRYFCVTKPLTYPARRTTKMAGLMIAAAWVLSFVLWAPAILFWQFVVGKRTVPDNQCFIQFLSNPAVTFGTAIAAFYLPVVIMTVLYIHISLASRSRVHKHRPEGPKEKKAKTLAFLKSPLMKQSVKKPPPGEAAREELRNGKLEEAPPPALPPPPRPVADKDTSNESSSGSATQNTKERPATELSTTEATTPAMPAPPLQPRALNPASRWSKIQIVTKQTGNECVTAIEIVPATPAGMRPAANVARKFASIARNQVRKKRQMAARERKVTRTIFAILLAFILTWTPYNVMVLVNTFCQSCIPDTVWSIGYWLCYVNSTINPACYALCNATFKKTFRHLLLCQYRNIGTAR
Method: as §1, §2

[5] = CHO cells stably expressing human M1
[6] = read-out: % Emax cf. ACh, M2, CHO cells stably expressing human M2, Emax relative to ACh
[7] = read-out: % Emax cf. ACh, M3, CHO cells stably expressing human M3, Emax relative to ACh
[8] = read-out: % Emax cf. ACh, M1, CHO cells stably expressing human M1, Emax relative to ACh
[9] = read-out: % Emax cf. ACh, M4, CHO cells stably expressing human M4, Emax relative to ACh

SMILES | EC50 [1] | Emax ([1]; read-out: % Emax cf. ACh, M2) | EC50 [2] | Emax ([2]; read-out: % Emax cf. ACh, M3) | EC50 [3, 5] | Emax ([3]; read-out: % Emax cf. ACh, M1) | EC50 [4] | Emax ([4]; read-out: % Emax cf. ACh, M4) | Emax [1, 6] | Emax [2, 7] | Emax [3, 8] | Emax [4, 9] | % Emax cf. ACh, M1 ([3]; CHO cells stably expressing human M1, Emax relative to ACh, listed as 2-2 Isomer 1)
CCOC(=O)N1C2CCCC1CC(N1CC(CC(=O)N3CCCCC3)C1)C2 (single isomer, unassigned) [Example 3-3 Isomer 1, Ethyl-3-(3-(2-oxo-2-(piperidin-1-yl)ethyl)azetidin-1-yl)-9-azabicyclo[3.3.1]nonane-9-carboxylate] | > 20000 nM | 5% | > 20000 nM | 9% | 316 nM | 117% | 1290 nM | 55% | – | – | – | – | –
CCOC(=O)N1CC2(CCC(N3CC(OC(=O)N(C)CC)C3)C2)C1 (single isomer, unassigned) [Example 4-4 Isomer 1, Ethyl 6-(3-((ethyl(methyl)carbamoyl)oxy)azetidin-1-yl)-2-azaspiro[3.4]octane-2-carboxylate] | > 20000 nM | – | > 20000 nM | – | 58.9 nM | – | 22.9 nM | – | 5% | 0% | 67% | 37% | –
CCOC(=O)N1CC2CCC1CC2N1CC(CC(=O)N(CC)C(C)C)C1 (single isomer, unassigned) [Example 2-2 Isomer 1, Ethyl-5-(3-(2-(ethyl(isopropyl)amino)-2-oxoethyl)azetidin-1-yl)-2-azabicyclo[2.2.2]octane-2-carboxylate] | > 20000 nM | – | > 20000 nM | – | 19.1 nM | – | 257 nM | – | 8% | 12% | – | 36% | 95%
CCOC(=O)N1CC2CCC1CC2N1CC(CC(=O)N(CC)CC)C1 (single isomer, unassigned) [Example 2-1 Isomer 1, Ethyl-5-(3-(2-(diethylamino)-2-oxoethyl)azetidin-1-yl)-2-azabicyclo[2.2.2]octane-2-carboxylate] | > 20000 nM | – | > 20000 nM | – | 209 nM | – | > 20000 nM | – | 13% | 6% | 67% | 9% | –
CCOC(=O)N1CC2CCC1CC2N1CC(CC(=O)N2CCC23CCC3)C1 (single isomer, unassigned) [Example 2-5 Isomer 1, Ethyl-5-(3-(2-oxo-2-(1-azaspiro[3.3]heptan-1-yl)ethyl)azetidin-1-yl)-2-azabicyclo[2.2.2]octane-2-carboxylate] | > 20000 nM | – | > 20000 nM | – | 110 nM | – | > 20000 nM | – | 53% | 35% | 64% | 23% | –
